Assay results taken from patent US20090054235A1, “Benzoheterocyclylethylbenzamide derivatives” (priority 2005, published 2009).

Test system: Pyrenophora teres
Test: In vivo test on Pyrenophora teres (preventive spray on barley plants)
Details: barley plants (Express variety), grading 12 days after contamination, in comparison with control plants
Experimental: The active ingredient tested is prepared by potter homogenisation in a concentrated suspension type formulation at 100 g/l. This suspension is then diluted with water to obtain the desired active material concentration.
Barley plants (Express variety) in starter cups, sown on a 50/50 peat soil-pozzolana substrate and grown at 12° C., are treated at the 1-leaf stage (10 cm tall) by spraying with the aqueous suspension described above. Plants, used as controls, are treated with an aqueous solution not containing the active material. After 24 hours, the plants are contaminated by spraying them with an aqueous suspension of Pyrenophora teres spores (12,000 spores per ml). The spores are collected from a 12-day-old culture. The contaminated barley plants are incubated for 24 hours at about 20° C. and at 100% relative humidity, and then for 12 days at 80% relative humidity.
Grading is carried out 12 days after the contamination, in comparison with the control plants.

SMILES | protection (dose of 500 ppm) | protection (dose of 330 ppm)
O=C(NCCc1c[nH]c2ccc(Br)cc12)c1ccccc1C(F)F [N.[2-(5-bromo-1H-indol-3-yl)ethyl]-2-(difluoromethyl)benzamide] | no protection at all | –
O=C(NCCc1c[nH]c2ccc(Br)cc12)c1ccccc1C(F)(F)F [N.[2-(5-bromo-1H-indol-3-yl)ethyl]-2-(trifluoromethyl)benzamide] | – | no protection at all
O=C(NCCc1c[nH]c2ccc(Br)cc12)c1ccccc1Cl [N.[2-(5-bromo-1H-indol-3-yl)ethyl]-2-chlorobenzamide] | no protection at all | –
O=C(NCCc1c[nH]c2ccc(Br)cc12)c1ccccc1I [N.[2-(5-bromo-1H-indol-3-yl)ethyl]-2-iodobenzamide] | no protection at all | –
